The text below walks through data of patent publication US20230014181A1, “CULTURE SYSTEM AND METHODS FOR IMPROVED MODELING OF NEUROLOGICAL CONDITIONS” (Genentech, Inc., priority 2021, published 2023).

Assay [1] concerns human iPSC neurons and astrocytes treated with 5 μM sAβ42s. The assay can be described thus: Focused small molecule screen, double culture (neuron, astrocyte), rescue from sAβ42s toxicity, high content imaging. Format: cell-based. The following applies: double culture, 5 μM sAβ42s; for percent rescue from sAβ42s toxicity at 6.25 µM / percent rescue from sAβ42s toxicity at 12.5 µM / percent rescue from sAβ42s toxicity at 25 µM / percent rescue from sAβ42s toxicity at 50 µM: Homo sapiens, iPSC. How it is done: FIGS. 11A-11D show synapse % rescue versus MAP2% rescue (FIGS. 11A-11B) and beta III tubulin % rescue versus MAP2% rescue (FIGS. 11C-11D), in neurons and astrocytes (FIGS. 11A and 11C) or neurons, astrocytes, and microglia (FIGS. 11B and 11D) treated with 5 μM sAβ42s and small molecules from a focused screen of known neuroprotective agents at multiple concentrations (50 μM, 25 μM, 12.5 μM and 6.25 μM (double culture), 50 μM, 12.5 μM, 3.1 μM and 0.78 μM (triple culture). Small molecules that prevented toxicity in dendrites (MAP2), synapses (Synapsin 1/2), cell count (CUX2), or axons ([…]) at or above 30% were considered hits (red dotted line).
Neurons from both NSC lines were evaluated by immunofluorescence staining. Briefly, cells were fixed with 4% PFA and 4% sucrose at room temperature for 20 minutes using Bravo automation. Fixed cells were then washed 2 times with PBS using Biotek 406 microplate washer (Beckman Coulter), followed by permeabilization and blocking by incubation with a solution containing 1×PBS, 0.1% Triton X-100, 2% donkey serum, and 1% BSA at room temperature for 30 minutes. Blocking solution was removed and cells were incubated with primary antibodies in blocking solution overnight at 4° C. After washing 6 times with PBS on Biotek 406 cell plate washer (Beckman Coulter), cells were then incubated with fluorophore-conjugated secondary antibodies for 1 hour at room temperature in the dark to avoid photobleaching. Cells were then washed 6 more times in with PBS before imaging. Fluorescent images were captured using IN Cell 6000 confocal microscope (GE Healthcare Life Sciences). The image analysis was performed with IN Cell 6000 analysis software.
Prior to experimentation, media volume in wells containing neurons was equalized with liquid handling automation (Bravo) in order to ensure precise control of concentrations. All Aβ42 oligomers, anti-Aβ, small molecules, inflammatory cytokines were prepared at 10× concentration and added to Neuronal Culture Media at an appropriate volume. For the repeated dosing experiments, the media were refreshed 50% at each dosing first, before adding Aβ42 oligomers, and/or anti-Aβ antibody at the specified final concentration.
In double (neuron, astrocyte) and triple (neuron, astrocyte, microglia) cultures, each small molecule listed in Table 1 was tested in the AD model paradigm at up to four concentrations. Molecules that characterized ≥30% rescue in any of the four measurements of dendrites area (MAP2), synapses count (synapsin 1/2), or cell count (CUX2), or axon area (Beta III Tubulin; “BT3”)) were classified as hits (FIGS. 11A-11D, Table 2, and Table 3).

The test system of assay [2] is human iPSC neurons, astrocytes and microglia treated with 5 μM sAβ42s. The assay can be described thus: Focused small molecule screen, triple culture (neuron, astrocyte, microglia), rescue from sAβ42s toxicity. The following applies: for percent rescue from sAβ42s toxicity at 50 µM / percent rescue from sAβ42s toxicity at 0.78 µM / percent rescue from sAβ42s toxicity at 3.13 µM / percent rescue from sAβ42s toxicity at 12.5 µM: Homo sapiens, iPSC. It is filed as cell-based. The method in brief: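 Human iPSC neuron-astrocyte co-cultures (8 weeks old), with or without added iPSC microglia (8,000 cells/well), were exposed to 5 μM sAβ42s together with compounds at up to four concentrations: 50–6.25 μM for double cultures and 50–0.78 μM for triple cultures. Rescue of MAP2, synapsin 1/2, CUX2 count or axon (NFL-H/βIII-tubulin) readouts of ≥30% was scored as a hit.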

Setting [3] is: 6.25 μM compound, read-out: % B3T rescue.
[4] abbreviates: 6.25 μM compound, read-out: % Cux2 rescue.
The mark [5] stands for this setting: 6.25 μM compound, read-out: % MAP2 rescue.
Setting [6] is: 6.25 μM compound, read-out: % Synapse rescue.
[7] abbreviates: 25 μM compound, read-out: % B3T rescue.
[8] abbreviates: 25 μM compound, read-out: % Cux2 rescue.
Where [9] appears, read: 25 μM compound, read-out: % MAP2 rescue.
Where [10] appears, read: 25 μM compound, read-out: % Synapse rescue.
Setting [11] is: 50 μM compound, read-out: % B3T rescue.
[12] abbreviates: 50 μM compound, read-out: % Cux2 rescue.
Setting [13] is: 50 μM compound, read-out: % MAP2 rescue.
Setting [14] is: 50 μM compound, read-out: % Synapse rescue.
The mark [15] stands for this setting: 50.00 μM compound, read-out: % B3T rescue.
Where [16] appears, read: 50.00 μM compound, read-out: % MAP2 rescue.
Setting [17] is: 50.00 μM compound, read-out: % Synapse rescue.
The mark [18] stands for this setting: 0.78 μM compound, read-out: % B3T rescue.
Setting [19] is: 0.78 μM compound, read-out: % MAP2 rescue.
Where [20] appears, read: 0.78 μM compound, read-out: % Synapse rescue.

Each structure is given as a SMILES string. Where a name gives a salt, the structure may show the parent alone. Read-outs that look alike come from different tables or passages of the source.

For the compound `CC1=NN(c2ccc(C(=O)O)cc2)C(=O)/C1=C\c1ccc(-c2cc(C)c(C)cc2[N+](=O)[O-])o1` [C 646], in assay [1] (50 μM compound), the “% B3T rescue” value is 49%, the “% Cux2 rescue” value is recorded as 25%, the “% MAP2 rescue” value is 54% and the “% Synapse rescue” value turned out to be 19%. For the same compound, in assay [2] (0.78 μM compound), the “% B3T rescue” value is listed as 27%, the “% MAP2 rescue” value was 37% and the “% Synapse rescue” value is listed as 28%. For the same compound, in assay [2] (12.50 μM compound), the “% B3T rescue” value was determined as 42%, the “% MAP2 rescue” value stood at 41% and the “% Synapse rescue” value came to 38%. In assay [2] (50.00 μM compound), the “% B3T rescue” value came to 53%, the “% MAP2 rescue” value is listed as 37% and the “% Synapse rescue” value stood at 39%.
For `CCCC[C@@H](C=O)NC(=O)[C@H](CC(C)C)NC(=O)OCc1ccccc1` [Calpeptin], the percent rescue from sAβ42s toxicity at 6.25 µM in assay [1] (setting [3]) worked out at 9%; in assay [1] (setting [4]), 70%; in assay [1] (setting [5]), 22%; in assay [1] (setting [6]), 6%. The percent rescue from sAβ42s toxicity at 12.5 µM was found to be 4% in assay [1] (12.5 μM compound, read-out: % B3T rescue); 79% in assay [1] (12.5 μM compound, read-out: % Cux2 rescue); 27% in assay [1] (12.5 μM compound, read-out: % MAP2 rescue); 11% in assay [1] (12.5 μM compound, read-out: % Synapse rescue). For the same compound, the percent rescue from sAβ42s toxicity at 25 µM worked out at 7% in assay [1] (setting [7]), 91% in assay [1] (setting [8]), 39% in assay [1] (setting [9]) and 9% in assay [1] (setting [10]). The percent rescue from sAβ42s toxicity at 50 µM was 20% in assay [1] (setting [11]); 96% in assay [1] (setting [12]); 36% in assay [1] (setting [13]); 15% in assay [1] (setting [14]); 66% in assay [2] (setting [15]); 34% in assay [2] (setting [16]). Moreover, the percent rescue from sAβ42s toxicity at 50 µM in assay [2] (setting [17]) turned out to be 34%.
Consider `COc1cccc2c1C(=O)c1c(O)c3c(c(O)c1C2=O)C[C@@](O)(C(C)=O)C[C@@H]3O[C@H]1C[C@H](N)[C@H](O)[C@H](C)O1` [Daunorubicin hydrochloride], for which the percent rescue from sAβ42s toxicity at 25 µM in assay [1] (setting [7]) is 73%; in assay [1] (setting [8]) it was -23%; in assay [1] (setting [9]), -122%; in assay [1] (setting [10]), -27%. Also, the percent rescue from sAβ42s toxicity at 50 µM in assay [1] (setting [11]) was 101%; in assay [1] (setting [12]), -39%; in assay [1] (setting [13]), -124%; in assay [1] (setting [14]), -27%. In addition, the results for the percent rescue from sAβ42s toxicity at 0.78 µM in assay [2] (setting [18]), in assay [2] (setting [19]) and in assay [2] (setting [20]) were 68%, 74% and 52%, respectively.
As to `N#Cc1ccnc(Nc2cc(C3CCN(C4COC4)CC3)cc(N3CCC(F)(F)C3)n2)c1` [GNE-3511], the percent rescue from sAβ42s toxicity at 6.25 µM was found to be 15% in assay [1] (setting [3]), 18% in assay [1] (setting [4]), 32% in assay [1] (setting [5]) and 7% in assay [1] (setting [6]). Also, the percent rescue from sAβ42s toxicity at 25 µM was 17% in assay [1] (setting [7]), 36% in assay [1] (setting [8]), 49% in assay [1] (setting [9]) and 14% in assay [1] (setting [10]). Besides, the percent rescue from sAβ42s toxicity at 50 µM in assay [1] (setting [11]) is 58%; in assay [1] (setting [12]) it was 81%; in assay [1] (setting [13]), 87%; in assay [1] (setting [14]), 47%; in assay [2] (setting [15]), 65%; in assay [2] (setting [16]) it was 66%. Further, the percent rescue from sAβ42s toxicity at 50 µM in assay [2] (setting [17]) was 56%. Also, the figures for the percent rescue from sAβ42s toxicity at 0.78 µM in assay [2] (setting [18]), in assay [2] (setting [19]) and in assay [2] (setting [20]) were 85%, 91% and 79%, respectively. The percent rescue from sAβ42s toxicity at 3.13 µM in assay [2] (3.13 μM compound, read-out: % B3T rescue) was 81%; in assay [2] (3.13 μM compound, read-out: % MAP2 rescue), 95%; in assay [2] (3.13 μM compound, read-out: % Synapse rescue) it was 77%. The percent rescue from sAβ42s toxicity at 12.5 µM in assay [2] (12.50 μM compound, read-out: % B3T rescue) is 82%; in assay [2] (12.50 μM compound, read-out: % MAP2 rescue), 102%; in assay [2] (12.50 μM compound, read-out: % Synapse rescue) it was 81%.
Take `O=C1Nc2ccc3ncsc3c2/C1=C/Nc1ccc(S(=O)(=O)Nc2ccccn2)cc1` [GW8510]: the “% B3T rescue” value in assay [1] (6.25 μM compound) was found to be 32%; in assay [1] (12.5 μM compound) it was 20%; in assay [1] (25 μM compound) it was 31%; in assay [1] (50 μM compound) it was 47%; in assay [2] (0.78 μM compound) it was 45%; in assay [2] (3.13 μM compound), 70%. Also, the “% B3T rescue” value turned out to be 68% in assay [2] (12.50 μM compound) and 63% in assay [2] (50.00 μM compound). Further, the “% Cux2 rescue” value in assay [1] (6.25 μM compound) is recorded as −1%; in assay [1] (12.5 μM compound), 16%; in assay [1] (25 μM compound), −18%; in assay [1] (50 μM compound), −22%. The “% MAP2 rescue” value is on record as 48% in assay [1] (6.25 μM compound); 37% in assay [1] (12.5 μM compound); 37% in assay [1] (25 μM compound); 52% in assay [1] (50 μM compound); −4% in assay [2] (0.78 μM compound); 15% in assay [2] (3.13 μM compound). The “% MAP2 rescue” value in assay [2] (12.50 μM compound) is 28%; in assay [2] (50.00 μM compound), −8%. Moreover, the “% Synapse rescue” value was determined as 52% in assay [1] (6.25 μM compound); 38% in assay [1] (12.5 μM compound); 38% in assay [1] (25 μM compound); 49% in assay [1] (50 μM compound); 8% in assay [2] (0.78 μM compound); 25% in assay [2] (3.13 μM compound). Moreover, the “% Synapse rescue” value in assay [2] (12.50 μM compound) is on record as 32%; in assay [2] (50.00 μM compound), −15%.
